Results published in patent US12030904B2 (priority 2020, dated 2024).
Like-named read-outs stand apart in the source and are kept apart here.

Legend:
[1] = test system: Recombinant Respiratory Syncytial virus strain A2 containing the firefly luciferase reporter (RSV-Fluc); assay: microbe, parasite or virus in culture; type: cell-based; conditions: human respiratory syncytial virus, NHBE
[2] = test system: SARS-CoV-2; assay: microbe, parasite or virus in culture; type: cell-based
[3] = MT4 cytotoxicity (CC50); conditions: human, MT4 cells
[4] = Severe acute respiratory syndrome coronavirus 2, read-out: SARS EC50
[5] = 72 h, read-out: RSV-Fluc EC50 (NHBE), NHBE cells, three days, Table 2

CCCCCCCCCCCCCCCCCCOC[C@H](COP(=O)(O)OC[C@H]1O[C@@](C#N)(c2ccc3c(N)ncnn23)[C@H](O)[C@@H]1O)Oc1ccc(C#N)nc1 [Example 78, ((2R,3S,4R,5R)-5-(4-aminopyrrolo[2,1-f][1,2,4]triazin-7-yl)-5-cyano-3,4-dihydroxytetrahydrofuran-2-yl)methyl ((R)-2-((6-cyanopyridin-3-yl)oxy)-3-(octadecyloxy)propyl) hydrogen phosphate]
EC50 ([1]; read-out: RSV EC50, Table 4): 7 nM | EC50 [2, 4]: 33 nM | CC50 ([3]; MT4 CC50, Table 4): 133 nM

CCCCCCCCCCCCCCCCCCOC[C@H](COP(=O)(O)OC[C@H]1O[C@@](C#N)(c2ccc3c(N)ncnn23)[C@H](O)[C@@H]1O)OC(C)C [Example 47, ((2R,3S,4R,5R)-5-(4-aminopyrrolo[2,1-f][1,2,4]triazin-7-yl)-5-cyano-3,4-dihydroxytetrahydrofuran-2-yl)methyl ((R)-2-isopropoxy-3-(octadecyloxy)propyl) hydrogen phosphate]
EC50 [1, 5]: 300 nM | EC50 ([1]; read-out: RSV EC50, Table 2a): 297 nM | EC50 [2, 4]: 1080 nM | CC50 ([3]; MT4 CC50, Table 2a): 7870 nM

CCCCCCCCCCCCCCCCCCOC[C@H](COP(=O)(O)OC[C@H]1O[C@@](C#N)(c2ccc3c(N)ncnn23)[C@H](O)[C@@H]1O)OCc1cccc(C#N)c1 [Example 39, ((2R,3S,4R,5R)-5-(4-aminopyrrolo[2,1-f][1,2,4]triazin-7-yl)-5-cyano-3,4-dihydroxytetrahydrofuran-2-yl)methyl ((R)-2-((3-cyanobenzyl)oxy)-3-(octadecyloxy)propyl) hydrogen phosphate]
EC50 [1, 5]: 27 nM | EC50 ([1]; read-out: RSV EC50, Table 2a): 27 nM | EC50 [2, 4]: 284 nM | CC50 ([3]; MT4 CC50, Table 2a): 348 nM

CCCCCCCCCCCCCCCCCCOC[C@H](COP(=O)(O)OC[C@H]1O[C@@](C#N)(c2ccc3c(N)ncnn23)[C@H](O)[C@@H]1O)Oc1cccc(C#N)c1 [Example 30, ((2R,3S,4R,5R)-5-(4-aminopyrrolo[2,1-f][1,2,4]triazin-7-yl)-5-cyano-3,4-dihydroxytetrahydrofuran-2-yl)methyl ((R)-2-(3-cyanophenoxy)-3-(octadecyloxy)propyl) hydrogen phosphate]
EC50 [1, 5]: 17 nM | EC50 ([1]; read-out: RSV EC50, Table 2a): 17 nM | EC50 [2, 4]: 97 nM | CC50 ([3]; MT4 CC50, Table 2a): 188 nM

CCCCCCCCCCCCCCCCCCOC[C@H](COP(=O)(O)OC[C@H]1O[C@@](C#N)(c2ccc3c(N)ncnn23)[C@H](O)[C@@H]1O)OCc1ccc(Cl)cc1Cl [Example 62, ((2R,3S,4R,5R)-5-(4-aminopyrrolo[2,1-f][1,2,4]triazin-7-yl)-5-cyano-3,4-dihydroxytetrahydrofuran-2-yl)methyl ((R)-2-((2,4-dichlorobenzyl)oxy)-3-(octadecyloxy)propyl) hydrogen phosphate]
EC50 [1, 5]: 220 nM | EC50 ([1]; read-out: RSV EC50, Table 2a): 217 nM | EC50 [2, 4]: 8620 nM | CC50 ([3]; MT4 CC50, Table 2a): 12600 nM

CCCCCCCCCCCCCCCCCCOC[C@H](COP(=O)(O)OC[C@H]1O[C@@](C#N)(c2ccc3c(N)ncnn23)[C@H](O)[C@@H]1O)OCc1ccc(C#N)cn1 [Example 124, [(2R,3S,4R,5R)-5-(4-Aminopyrrolo[2,1-f][1,2,4]triazin-7-yl)-5-cyano-3,4-dihydroxy-tetrahydrofuran-2-yl]methyl [(2R)-2-[(5-cyano-2-pyridyl)methoxy]-3-octadecoxy-propyl] hydrogen phosphate]
EC50 ([1]; read-out: RSV EC50, Table 4): 27 nM | EC50 [2, 4]: 200 nM | CC50 ([3]; MT4 CC50, Table 4): 703 nM

CCCCCCCCCCCCCCCCCOC[C@H](COP(=O)(O)OC[C@H]1O[C@@](C#N)(c2ccc3c(N)ncnn23)[C@H](O)[C@@H]1O)OCc1ccccc1 [Example 6, ((2R,3S,4R,5R)-5-(4-aminopyrrolo[2,1-f][1,2,4]triazin-7-yl)-5-cyano-3,4-dihydroxytetrahydrofuran-2-yl)methyl ((R)-2-(benzyloxy)-3-(heptadecyloxy)propyl) hydrogen phosphate]
EC50 ([1]; 72 h, read-out: RSV-Fluc EC50 (NHBE), NHBE cells, three days, Table 1): 80 nM | EC50 ([2]; Severe acute respiratory syndrome coronavirus 2, 48 h, read-out: SARS-CoV-2 EC50): 950 nM | CC50 ([3]; MT4 CC50, Table 1a): 4150 nM

CCCCCCCCCCCCCCCCCCOC[C@H](COP(=O)(O)OC[C@H]1O[C@@](C#N)(c2ccc3c(N)ncnn23)[C@H](O)[C@@H]1O)OCc1cc(C#N)ccc1OC [Example 104, [(2R,3S,4R,5R)-5-(4-Aminopyrrolo[2,1-f][1,2,4]triazin-7-yl)-5-cyano-3,4-dihydroxy-tetrahydrofuran-2-yl]methyl [(2R)-2-[(5-cyano-2-methoxy-phenyl)methoxy]-3-octadecoxy-propyl] hydrogen phosphate]
EC50 ([1]; read-out: RSV EC50, Table 4): 222 nM | EC50 [2, 4]: 1300 nM | CC50 ([3]; MT4 CC50, Table 4): 2550 nM

CCCCCCCCCCCCCCCCCOC[C@H](COP(=O)(O)OC[C@H]1O[C@@](C#N)(c2ccc3c(N)ncnn23)[C@H](O)[C@@H]1O)OCc1ccc(C#N)cc1 [Example 36, ((2R,3S,4R,5R)-5-(4-aminopyrrolo[2,1-f][1,2,4]triazin-7-yl)-5-cyano-3,4-dihydroxytetrahydrofuran-2-yl)methyl ((R)-2-((4-cyanobenzyl)oxy)-3-(heptadecyloxy)propyl) hydrogen phosphate]
EC50 ([1]; read-out: RSV EC50, Table 2a): 17 nM | EC50 [2, 4]: 404 nM | CC50 ([3]; MT4 CC50, Table 2a): 530 nM

CCCCCCCCCCCCCCCOC[C@H](COP(=O)(O)OC[C@H]1O[C@@](C#N)(c2ccc3c(N)ncnn23)[C@H](O)[C@@H]1O)OCc1ccc(C#N)cc1F [Example 102, [(2R,3S,4R,5R)-5-(4-aminopyrrolo[2,1-f][1,2,4]triazin-7-yl)-5-cyano-3,4-dihydroxy-tetrahydrofuran-2-yl]methyl [(2R)-2-[(4-cyano-2-fluoro-phenyl)methoxy]-3-pentadecoxy-propyl] hydrogen phosphate]
EC50 ([1]; read-out: RSV EC50, Table 4): 21 nM | EC50 [2, 4]: 120 nM | CC50 ([3]; MT4 CC50, Table 4): 4500 nM

CCCCCCCCCCCCCCCCCOC[C@H](COP(=O)(O)OC[C@H]1O[C@@](C#N)(c2ccc3c(N)ncnn23)[C@H](O)[C@@H]1O)OCc1cccc(C#N)c1 [Example 34, ((2R,3S,4R,5R)-5-(4-aminopyrrolo[2,1-f][1,2,4]triazin-7-yl)-5-cyano-3,4-dihydroxytetrahydrofuran-2-yl)methyl ((R)-2-((3-cyanobenzyl)oxy)-3-(heptadecyloxy)propyl) hydrogen phosphate]
EC50 ([1]; read-out: RSV EC50, Table 2a): 25 nM | EC50 [2, 4]: 582 nM | CC50 ([3]; MT4 CC50, Table 2a): 550 nM

CCCCCCCC/C=C\CCCCCCCCOC[C@H](COP(=O)(O)OC[C@H]1O[C@@](C#N)(c2ccc3c(N)ncnn23)[C@H](O)[C@@H]1O)OCc1ccccc1 [Example 130, ((2R,3S,4R,5R)-5-(4-aminopyrrolo[2,1-f][1,2,4]triazin-7-yl)-5-cyano-3,4-dihydroxytetrahydrofuran-2-yl)methyl ((R)-2-(benzyloxy)-3-(((Z)-octadec-9-en-1-yl)oxy)propyl) hydrogen phosphate]
EC50 ([1]; read-out: RSV EC50, Table 4): 39 nM | EC50 [2, 4]: 110 nM | CC50 ([3]; MT4 CC50, Table 4): 3560 nM

CCCCCCCCCCCCCCCCCCOC[C@H](COP(=O)(O)OC[C@H]1O[C@@](C#N)(c2ccc3c(N)ncnn23)[C@H](O)[C@@H]1O)OCc1ccc(C)cc1 [Example 40, ((2R,3S,4R,5R)-5-(4-aminopyrrolo[2,1-f][1,2,4]triazin-7-yl)-5-cyano-3,4-dihydroxytetrahydrofuran-2-yl)methyl ((R)-2-((4-methylbenzyl)oxy)-3-(octadecyloxy)propyl) hydrogen phosphate]
EC50 [1, 5]: 84 nM | EC50 ([1]; read-out: RSV EC50, Table 2a): 84 nM | EC50 [2, 4]: 185 nM | CC50 ([3]; MT4 CC50, Table 2a): 2240 nM

CCCCCCCCCCCCCCCCCCOC[C@H](COP(=O)(O)OC[C@H]1O[C@@](C#N)(c2ccc3c(N)ncnn23)[C@H](O)[C@@H]1O)Oc1cnc(C#N)c(OC)c1 [Example 83, ((2R,3S,4R,5R)-5-(4-aminopyrrolo[2,1-f][1,2,4]triazin-7-yl)-5-cyano-3,4-dihydroxytetrahydrofuran-2-yl)methyl ((R)-2-((6-cyano-5-methoxypyridin-3-yl)oxy)-3-(octadecyloxy)propyl) hydrogen phosphate]
EC50 ([1]; read-out: RSV EC50, Table 4): 5 nM | EC50 [2, 4]: 40 nM | CC50 ([3]; MT4 CC50, Table 4): 164 nM

CCCCCCCCCCCCCCCCCCOC[C@H](COP(=O)(O)OC[C@H]1O[C@@](C#N)(c2ccc3c(N)ncnn23)[C@H](O)[C@@H]1O)OCc1ccc(F)c(C#N)c1 [Example 98, [(2R,3S,4R,5R)-5-(4-aminopyrrolo[2,1-f][1,2,4]triazin-7-yl)-5-cyano-3,4-dihydroxy-tetrahydrofuran-2-yl]methyl [(2R)-2-[(3-cyano-4-fluoro-phenyl)methoxy]-3-octadecoxy-propyl] hydrogen phosphate]
EC50 ([1]; read-out: RSV EC50, Table 4): 1000 nM | EC50 [2, 4]: 1300 nM | CC50 ([3]; MT4 CC50, Table 4): 8980 nM

CCCCCCCCCCCCCCCCCCOC[C@H](COP(=O)(O)OC[C@H]1O[C@@](C#N)(c2ccc3c(N)ncnn23)[C@H](O)[C@@H]1O)OCc1ccc2c(c1)CCC2 [Example 52, ((2R,3S,4R,5R)-5-(4-aminopyrrolo[2,1-f][1,2,4]triazin-7-yl)-5-cyano-3,4-dihydroxytetrahydrofuran-2-yl)methyl ((R)-2-((2,3-dihydro-1H-inden-5-yl)methoxy)-3-(octadecyloxy)propyl) hydrogen phosphate]
EC50 ([1]; read-out: RSV EC50, Table 2a): 125 nM | EC50 [2, 4]: 487 nM | CC50 ([3]; MT4 CC50, Table 2a): 17900 nM

CCCCCCCCCCCCCCCCCCOC[C@H](COP(=O)(O)OC[C@H]1O[C@@](C#N)(c2ccc3c(N)ncnn23)[C@H](O)[C@@H]1O)OCc1ccc(C#N)c(Cl)c1 [Example 23, ((2R,3S,4R,5R)-5-(4-aminopyrrolo[2,1-f][1,2,4]triazin-7-yl)-5-cyano-3,4-dihydroxytetrahydrofuran-2-yl)methyl ((R)-2-((3-chloro-4-cyanobenzyl)oxy)-3-(octadecyloxy)propyl) hydrogen phosphate]
EC50 [1, 5]: 30 nM | EC50 ([1]; read-out: RSV EC50, Table 2a): 30 nM | EC50 [2, 4]: 459 nM | CC50 ([3]; MT4 CC50, Table 2a): 723 nM
